Measurements as given in patent publication US20190225651A1, “COMPOUNDS FOR INDUCING TISSUE FORMATION AND USES THEREOF” (HISTIDE AG, priority 2015, published 2019).
Ends that are not written are not given here.

Assays:
[1] = Stability of non-covalent peptide coating on apatite ceramics (FITC fluorescence); format: physicochemical; conditions: peptide bound to FITC, coated on apatite ceramics; 3, 7 or 10 days
Procedure: (§1) Non-covalent modifications of the materials were performed in Air Atmosphere at room temperature. The non-covalent coating strategy consisted in using a mixture of inducing peptide (SEQ ID NO: 9; concentration of 1×10^−3M) with an apatite ceramics implant or a mixture of inducing peptide (SEQ ID NO: 10; concentration of 1×10^−3M) with a type-I collagen sponge. The non-covalently coated conventional materials were characterized by using fluorescent peptides (Here SEQ ID NO: 9 and 10 covalently bound to fluorescein isothiocyanate (FITC), FIG. 3). The results shown here in FIG. 3 were obtained from experiments performed with apatite ceramics and a type-I collagen sponge. […] Indeed, after 3, 7 or 10 days, the osteogenic peptides were still coated to the ceramics or the type-I collagen (FIG. 4). The biomaterial surface was characterized by X-ray photoelectron spectroscopy (Table 1). The X-ray photoelectron spectroscopy was performed as described in the Methods section.

[2] = Stability of non-covalent peptide coating on type-I collagen sponge (FITC fluorescence); format: physicochemical; conditions: peptide bound to FITC, mixed with type-I collagen sponge; 3, 7 or 10 days
Procedure: as §1

[3] = system: osteoblast progenitors; assay: Osteogenic differentiation of osteoblast progenitors on peptide-coated materials (Osteopontin staining, Runx2 Q-PCR); format: cell-based
Procedure: (§2) The cells were first fixed for 20 min with 4% paraformaldehyde/PBS at 4° C. After fixation, the cells were permeabilized in PBS containing 1% Triton X-100 for 15 min. Runx2, Osterix, Stro-1, Vinculin, Phalloidin, Osteopontin, Sox2, Sox9 antibodies were visualized by treating the cells with 1% (v/v) specific monoclonal antibodies for 1 hour at 37° C. Then the samples were incubated with Alexa Fluor® 568 or 647 (F(ab′)2 fragment of IgG(H+L)) during 30 min at room temperature. The cell nuclei were counterstained in 20 ng/mL DAPI for 10 min at room temperature.
(§3) Total RNA was extracted by using the RNeasy total RNA kit (Qiagen®) according to the manufacturer's instructions. Purified total RNA was used as a template in order to make cDNA by a reverse transcription reaction (Gibco BrI®) with random primers (Invitrogen®). The cDNA was then used as a template for a real-time PCR amplification in the presence of SYBR green reagents (Bio-Rad®) by using a thermocycler (iCycler, Biorad®). Data were analyzed with the iCycler IQ™® software and compared by the ΔΔCt method. Briefly, the mean Ct value of the target gene was normalized to its averaged Ct values of the housekeeping gene (HPRT) to give a ΔCt value, which was then normalized to a control sample to obtain a ΔΔCt value. The results were obtained from two series of experiments performed in a triplicate.
The effect of these GFR-binding compounds as defined herein (SEQ ID NO: 19 and 20) on the differentiation of osteoblast progenitors was evaluated. These osteoblast progenitors were seeded onto the apatite ceramics or on type-I collagen sponge that were both coated with osteogenic peptides. […] This was seen from Osteopentin immunofluorescence staining after cell fixation as described in the Methods section (FIG. 7).
An increase in the Runx2 gene expression after 24 hours of culture (FIG. 8a) was observed by using Quantitative Real Time Polymerase Chain Reaction as described in the Methods section.

[4] = system: hMSCs; assay: Alkaline phosphatase activity of hMSCs on peptide-coupled type-I collagen sponge; format: cell-based, human; conditions: 1 week of culture on type-I collagen sponge
From the text: We observed an increase in the ALP activity after 1 week of culture on type-I collagen sponge coupled with GFR-binding compounds as defined herein (SEQ ID NO: 19) (FIG. 8b).

[5] = system: hMSCs; assay: Chondrocyte differentiation of hMSCs (Sox9, Aggrecan); format: cell-based, human; conditions: 96 hours of culture
Procedure: as §2
Total RNA was extracted by using the RNeasy Mini Kit (Qiagen) and […] RNA was used for cDNA synthesis with AMV kit (Invitrogen®) according to the manufacturer' instructions. Semi-quantitative reverse transcriptase-polymerase chain reaction (RT-PCR) was performed with Taq DNA Polymerase (Invitrogen®) in a thermocycler (Bio-Rad®). The cDNA input was normalized to […] (HPRT). The PCR products were analyzed on 2% agarose gels. For the Aggrecan gene, the PCR bands were densitometrically quantified by using the BioCapt software (Vilber). Values were normalized to HPRT, and results were reported as relative gene expression.
hMSCs were cultured on with and without GFR-binding compounds as defined herein (SEQ ID NO: 23 and 24). […]

[6] = system: Human umbilical-vein endothelial cells; assay: Endothelialization, CD31 adherens junctions; format: cell-based; conditions: 36 hours of culture
Procedure: Human umbilical-vein endothelial cells were cultured with and without GFR-binding compounds as defined herein (SEQ ID NO: 26). An increase in the area of the adherent junctions (CD31) was observed after 36 hours of culture with GFR-binding compounds as defined herein (FIG. 10).

[7] = system: Human umbilical-vein endothelial cells; assay: Angiogenesis, tube-like structure formation; format: cell-based; conditions: 18 hours of culture
Procedure: Human umbilical-vein endothelial cells were cultured with and without GFR-binding compounds as defined herein (SEQ ID NO: 27).

[8] = system: Human epithelial cells; assay: Scratch test, collective cell migration; format: cell-based; conditions: 18 hours of culture
Procedure: Human epithelial cells were cultured with or without GFR-binding compounds as defined herein (SEQ ID NO: 28). A usual scratch test was applied (Nat Protoc 2: 329-333) on a monolayer of these epithelial cells in culture (FIG. 12a). An increase in the cell migration velocity for cells cultured with peptides was observed after 18 hours of culture. The cells migrated collectively and the communication between cells was maintained (FIG. 12b). In fact, the injury has been closed rapidly for the cells cultured with GFR-binding compounds as defined herein.

[9] = system: Neurons; assay: Neuron growth (dendrite growth, GAP43 Q-PCR); format: cell-based
Procedure: as §3
Neurons were cultured with and without GFR-binding compounds as defined herein (SEQ ID NO: 38). […] To further confirm this, the expression of the Growth Associated Protein 43 (GAP43) gene was verified for neuron cells cultured with neurogenic peptides (SEQ ID NO: 38).

SEQ ID NO: 9: inducing peptide, cyclic GFR-binding compound of the sequence listing; mixed with apatite ceramics; sequence not printed (WWFWGGGSAISTLYLIGKTPGGGGGG; also: cyclic, ring type and places not given here)
release of peptides over time [1]: no significant release of peptides was observed over time

SEQ ID NO: 10: inducing peptide, cyclic GFR-binding compound of the sequence listing; mixed with type-I collagen sponge; sequence not printed (GTPGPGGGSAISTLYLIGKTPGGGGGG; also: cyclic, closure not given here)
release of peptides over time [2]: no significant release of peptides was observed over time

SEQ ID NO: 19: osteogenic cyclic GFR-binding compound of the sequence listing; sequence not printed (WWFWGGGSAISTLYLDEYDKGGGGGG; also: cyclic, closure not given here)
differentiation into mature osteoblasts ([3]; 48 hours on coated apatite ceramics or type-I collagen sponge): differentiated into mature osteoblasts | production of extracellular matrix proteins such as Osteopontin (OPN) ([3]; versus native type-I collagen sponge or native apatite ceramics): produced extensive amounts of extracellular matrix proteins such as Osteopontin (OPN) | ALP activity [4]: increase

SEQ ID NO: 23: cyclic GFR-binding compound inducing cartilage regeneration; sequence not printed (VGRKPELEPLPIVYYVGRKPGGGGG; also: cyclic, ring type and places not given here)
expression of the Sox9 protein [5]: expression of the Sox9 protein was observed

SEQ ID NO: 24: cyclic GFR-binding compound inducing cartilage regeneration; sequence not printed (EPLPIVYYVGRTPKVGGGGGG; also: cyclic, ring type and places not given here)
expression of the Sox9 protein [5]: expression of the Sox9 protein was observed

SEQ ID NO: 26: cyclic GFR-binding compound inducing endothelialization; sequence not printed (RSVKVAKVRIKPHQGQHGGGGGG; also: cyclic, ring type and places not given here)
area of the adherent junctions (CD31) [6]: increase

SEQ ID NO: 27: vascular peptide, cyclic GFR-binding compound inducing angiogenesis; sequence not printed (SNITMQIMRIKPHQGGGGGG; also: cyclic, ring type and places not given here)
formation of tube-like structures [7]: formation of tube-like structures was observed

SEQ ID NO: 28: cyclic GFR-binding compound for wound healing; sequence not printed (EYVRKRPVQVRKIEYVRKGGGGGG; also: cyclic, ring type and places not given here)
cell migration velocity [8]: increase

SEQ ID NO: 38: neurogenic peptide, cyclic GFR-binding compound; sequence not printed (SPISILYIDAANNGGGGGG; also: cyclic, ring type and places not given here)
establishment of cell-cell contacts via dendrite growth ([9]; 6 hours of culture): rapid establishment of cell-cell contacts via dendrite growth | expression of the Growth Associated Protein 43 (GAP43) gene ([9]; 48 hours of culture, Q-PCR): high level of expression
